In PubChem BioAssay (NCI):
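Exposure lasted 48 hours, with cells grown in 96-well plates and compounds tested at five concentrations. Here, GI50 denotes the concentration required for 50% inhibition of growth. Definition used: TGI = concentration required for complete inhibition of growth.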

Assays:
Test in all cases: NCI tumour cell line growth inhibition, 48 h
HT29 colon = tested on: HT29 colon
EKVX NSCLC = tested on: EKVX NSCLC
OVCAR-5 ovarian = tested on: OVCAR-5 ovarian
ACHN renal = tested on: ACHN renal
SF-268 CNS = tested on: SF-268 CNS
NCI-H522 lung = tested on: NCI-H522 lung
HL-60(TB) leukemia = tested on: HL-60(TB) leukemia
UO-31 renal = tested on: UO-31 renal
BT-549 breast = tested on: BT-549 breast
PC-3 prostate = tested on: PC-3 prostate

SMILES | TGI (HT29 colon) [µM] | TGI (EKVX NSCLC) [µM] | TGI (OVCAR-5 ovarian) [µM] | TGI (ACHN renal) [µM] | TGI (SF-268 CNS) [µM] | TGI (NCI-H522 lung) [µM] | TGI (HL-60(TB) leukemia) [µM] | TGI (UO-31 renal) [µM] | GI50 (HT29 colon) [µM] | GI50 (OVCAR-5 ovarian) [µM] | GI50 (BT-549 breast) [µM] | TGI (BT-549 breast) [µM] | GI50 (PC-3 prostate) [µM] | TGI (PC-3 prostate) [µM] | GI50 (ACHN renal) [µM] | GI50 (SF-268 CNS) [µM] | GI50 (NCI-H522 lung) [µM] | GI50 (UO-31 renal) [µM] | GI50 (HL-60(TB) leukemia) [µM] | GI50 (EKVX NSCLC) [µM]
O=C(N/N=C/c1cc(-c2ccccc2Cl)c(-c2ccccc2Cl)o1)c1ccncc1 | > 100 | > 100 | > 100 | > 100 | > 100 | > 100 | > 100 | – | – | – | – | – | – | – | – | – | – | – | – | –
CC(=O)OC12CCCCC1C1(CCCC1)NC2=O (centres undefined) | > 100 | > 100 | > 100 | > 100 | > 100 | – | > 100 | > 100 | – | – | – | – | – | – | – | – | – | – | – | –
COc1cc(/C=C/C(=O)C(C)(C)C)cc(OC)c1OC | > 100 | > 100 | > 100 | > 100 | > 100 | > 100 | 53 | > 100 | – | – | – | – | – | – | – | – | – | – | – | –
O=C1[C@@H]2C3C=CC([C@H]4C(=O)N(CO)C(=O)[C@@H]34)[C@@H]2C(=O)N1CO | > 100 | > 100 | > 100 | > 83.5 | > 77.7 | > 56.5 | 49.3 | > 100 | – | – | – | – | – | – | – | – | – | – | – | –
Cn1c([N+](=O)[O-])cnc1/C=C1\Oc2ccc(Cl)cc2C1=O | 0.757 | – | 6.53 | 0.921 | 1.45 | 2.19 | 4.67 | 2.97 | 0.254 | 2.16 | 1.2 | 4.99 | 1.12 | 7.1 | 0.258 | 0.339 | 0.528 | 0.394 | 0.511 | –
Cc1cccc(NC(=O)c2sc3nc4c(cc3c2N)CCC4)c1C | – | – | 62.6 | 36.7 | 26 | 16.5 | 0.864 | > 100 | – | 0.531 | 0.443 | 23.5 | 0.369 | 15.7 | 0.951 | 0.722 | 0.325 | 0.615 | 0.239 | –
CCCCCC1C2C(=O)NC(=O)C1C(=O)NC2=O (centres undefined) | > 100 | > 100 | > 100 | > 100 | > 100 | > 100 | > 100 | > 100 | – | – | – | – | – | – | – | – | – | – | – | –
CN(C)CCCn1c2c(c3ccc([N+](=O)[O-])cc3c1=O)C(=O)c1ccccc1-2 | 21.3 | > 100 | 49 | 17.8 | > 100 | > 100 | – | 47.8 | 3.76 | 15.3 | – | – | 6.06 | > 100 | 4.54 | 9.53 | 4.2 | 4.28 | – | 84.9
CC/C(=C(\c1ccccc1)c1ccc(OCC[N+](C)(C)C)cc1)c1ccccc1 | 29.6 | 33 | – | 34.6 | 32.4 | 18.7 | 6.13 | 38.7 | – | – | – | – | – | – | – | – | – | – | – | –
Nc1cc2[nH]c(=O)c3cc(Cl)ccc3c2cc1Cl | > 100 | > 100 | > 100 | 22.4 | 45.4 | 33 | > 100 | 30.5 | – | – | – | > 100 | – | – | – | – | – | – | – | –
